Test results as given in patent US20140336259A1, “PHENOLIC COMPOUNDS WITH ANTIOXIDANT AND ANTI-CANCER PROPERTIES, ANALOGS AND SYNTHESIS THEREOF” (priority 2011, published 2014).
Values after ≈ are worked out from the molar mass of the structure shown. Values joined by “and” are separate entries in the source; they are usually repeats but may differ in a detail not shown here. Equal values may be shown once. Read-outs that look alike come from different tables or passages of the source.

Tests used:
[1] = system: MCF-7 (estrogen receptor (ER) positive) human breast cancer cells; test: MTS antiproliferative/cytotoxicity assay on MCF-7 cells; details: for MCF-7 IC50: 72 h treatment, mean ± S.D., vs DMSO 0.5% control; for antiproliferative / cytotoxic activity in words: against MCF-7 cells and MDA-MB 231 cells, 72 h of treatment
[2] = system: MDA-MB-231 (ER negative) human breast cancer cells; test: MTS antiproliferative/cytotoxicity assay on MDA-MB-231 cells; format: cell-based
[3] = system: MCF-7 (estrogen receptor (ER) positive) human breast cancer cells
[4] = read-out: IC50 MCF-7 72 h, 72 h
[5] = read-out: IC50 MCF-7 96 h, 96 h
[6] = Homo sapiens, MDA-MB-231, 72 h, 72 h, read-out: IC50 MDA-MB-231 72 h
[7] = Homo sapiens, MDA-MB-231, 72 h, 72 h treatment, mean ± S.D., vs DMSO 0.5% control, read-out: MDA-MB-231 IC50
[8] = Homo sapiens, MDA-MB-231, 96 h, 96 h, read-out: IC50 MDA-MB-231 96 h
[9] = read-out: IC50 MCF-7 24 h, 24 h
[10] = read-out: IC50 MCF-7 48 h, 48 h
[11] = Homo sapiens, MDA-MB-231, 24 h, 24 h, read-out: IC50 MDA-MB-231 24 h
[12] = Homo sapiens, MDA-MB-231, 48 h, read-out: IC50 MDA-MB-231 48 h, 48 h
[13] = 24 h, read-out: IC50 MDA-MB-231 24 h
[14] = 72 h, read-out: IC50 MDA-MB-231 72 h
[15] = 72 h treatment, mean ± S.D., vs DMSO 0.5% control
[16] = 96 h, read-out: IC50 MDA-MB-231 96 h
[17] = read-out: IC50 MDA-MB-231 48 h, 48 h

Row | Structure (SMILES) | MCF-7 IC50 [1] [µg/mL] | IC50 MCF-7 96 h ([1]; 96 h) [µg/mL] | antiproliferative / cytotoxic activity in words [1] | IC50 [1, 4] [µM] | IC50 [1, 5] [µM] | IC50 [2, 6] | IC50 [2, 7] [µg/mL] | IC50 [2, 8] | IC50 MCF-7 24 h ([1]; 24 h) [µg/mL] | IC50 MCF-7 48 h ([1]; 48 h) [µg/mL] | IC50 [1, 9] [µM] | IC50 [1, 10] [µM] | IC50 [2, 12] | further results
1 | COc1cc(C(O)c2ccccc2OC)ccc1OCc1ccccc1 (stereo not drawn) [QB12] | 65.0 ± 1.4 | 59.6 (≈ 170 µM) | moderate cytotoxic activity | 185 | 170 | 67.2 µg/mL and 192 µM | 62.9 to 77.4 | 58 µg/mL and 165 µM | – | – | – | – | – | –
2 | COc1cc(C(O)c2ccc(OCc3ccccc3)c(OC)c2)ccc1OCc1ccccc1 [QB46] | 44.8 ± 1.7 | 36.8 (≈ 80.6 µM) | moderate cytotoxic activity | 98.1 | 80.7 | 62.9 µg/mL and 138 µM | 62.9 to 77.4 | 53 µg/mL and 116 µM | 73.2 (≈ 160 µM) | 59.5 (≈ 130 µM) | 160 | 130 | 72.4 µg/mL and 159 µM | IC50 [2, 11]: 78.3 µg/mL and 172 µM
3 | CCOC(=O)C(c1ccc(OCc2ccccc2)c(OC)c1)C(c1ccc(OCc2ccccc2)c(OC)c1)c1ccc(OCc2ccccc2)c(OC)c1 (stereo not drawn) [QB56] | 138.1 ± 3.1 | 124.9 (≈ 169 µM) | – | 188 | 170 | 136 µg/mL and 185 µM | 136 ± 3.7 | 129 µg/mL and 176 µM | – | – | – | – | 143 µg/mL and 195 µM | –
4 | CCOC(=O)C(c1ccc(O)c(OC)c1)C(c1ccc(O)c(OC)c1)c1ccc(O)c(OC)c1 (stereo not drawn) [QB57] | – | – | – | – | – | 85.1 µg/mL and 182 µM | 85.1 ± 1.8 | 73.8 µg/mL and 158 µM | – | – | – | – | – | –
5 | COc1cc(C(CO)C(c2ccc(O)c(OC)c2)c2ccc(O)c(OC)c2)ccc1O (stereo not drawn) [QUEBECOL SYNTHETIC, 4,4′,4″-(3-Hydroxypropane-1,1,2-triyl)tris(2-methoxyphenol)] | 44.4 ± 1.8 | 38.0 (≈ 89.1 µM) | – | 104 | 89.1 | – | – | – | 67.2 (≈ 158 µM) | 54.2 (≈ 127 µM) | 158 | 127 | – | IC50 MDA-MB-231 24 h ([2]; 24 h): 72.5 µg/mL (≈ 170 µM); IC50 [2, 13]: 170 µM; IC50 MDA-MB-231 48 h ([2]; 48 h): 55.6 µg/mL (≈ 130 µM); IC50 MDA-MB-231 72 h ([2]; 72 h): 48.5 µg/mL (≈ 114 µM); IC50 [2, 14]: 114 µM; MDA-MB-231 IC50 [2, 15]: 48.5 ± 1.9 µg/mL; IC50 MDA-MB-231 96 h ([2]; 96 h): 43.8 µg/mL (≈ 103 µM); IC50 [2, 16]: 103 µM; IC50 [2, 17]: 130 µM
6 | COC(=O)c1cc(C(O)(c2ccc(O)c(C(=O)OC)c2)c2ccc(O)c(C(=O)OC)c2)ccc1O [TRD1] | 84.1 ± 3.4 | 78.3 (≈ 162 µM) | – | 174 | 162 | 93.9 µg/mL and 195 µM | 93.9 ± 2.4 | 89.4 µg/mL and 185 µM | 94.2 (≈ 195 µM) | 89.1 (≈ 185 µM) | 195 | 185 | – | –
7 | OCc1cc(CCCCCCCCCCCCc2ccc(O)c(CO)c2)ccc1O [TRD5] | 75.9 ± 1.9 | 66.5 (≈ 160 µM) | moderate cytotoxic activity | 183 | 160 | 81.6 µg/mL and 197 µM | 62.9 to 77.4 | 78.2 µg/mL and 189 µM | – | 80.9 (≈ 195 µM) | – | 195 | – | –
8 | COc1ccc(C(O)(c2ccc(OC)c(O)c2)c2ccc(OC)c(O)c2)cc1O [TRD6] | 60.4 ± 1.9 | 43.6 (≈ 109 µM) | moderate cytotoxic activity | 152 | 109 | 75.2 µg/mL and 189 µM | 62.9 to 77.4 | 71.5 µg/mL and 179 µM | 78.7 (≈ 198 µM) | 66.1 (≈ 166 µM) | 198 | 166 | – | –
9 | COc1ccc(C(O)(c2ccc(OC)c(F)c2)c2ccc(OC)c(F)c2)cc1F [TRD7] | – | 23.2 (≈ 57.4 µM) | highest antiproliferative activities | 61.3 | 57.3 | – | – | – | 42.3 (≈ 105 µM) | 32.7 (≈ 80.9 µM) | 105 | 80.9 | – | IC50 MCF-7 72 h ([1]; 72 h): 24.8 µg/mL (≈ 61.3 µM); IC50 MDA-MB-231 24 h ([2]; 24 h): 36.4 µg/mL (≈ 90 µM); IC50 [2, 13]: 90 µM; IC50 MDA-MB-231 48 h ([2]; 48 h): 30.4 µg/mL (≈ 75.2 µM); IC50 MDA-MB-231 72 h ([2]; 72 h): 24.0 µg/mL (≈ 59.3 µM); IC50 [2, 14]: 59.4 µM; MDA-MB-231 IC50 [2, 15]: 24.0 ± 2.1 µg/mL; IC50 MDA-MB-231 96 h ([2]; 96 h): 15.6 µg/mL (≈ 38.6 µM); IC50 [2, 16]: 38.7 µM; IC50 [2, 17]: 75.3 µM
10 | COc1ccc(C(O)(c2ccc(OC)c(C=O)c2)c2ccc(OC)c(C=O)c2)cc1C=O [TRD8] | 10.6 ± 2.1 | 7.0 (≈ 16.1 µM) | highest antiproliferative activities | 24.3 | 16.2 | 17.4 µg/mL and 40 µM | 17.5 to 24 | 11.2 µg/mL and 25.8 µM | 42.0 (≈ 96.7 µM) | 21.8 (≈ 50.2 µM) | 96.7 | 50.1 | 27.8 µg/mL and 63.9 µM | IC50 [2, 11]: 43.5 µg/mL and 100 µM
11 | COc1ccc(C(O)(c2ccc(OC)c(Br)c2)c2ccc(OC)c(Br)c2)cc1Br [TRD9] | 91.4 ± 3.4 | 82.3 (≈ 140 µM) | – | 156 | 140 | 97.8 µg/mL and 167 µM | 97.8 ± 3.5 | 89.9 µg/mL and 153 µM | 110.7 (≈ 189 µM) | 102.5 (≈ 175 µM) | 189 | 175 | 108 µg/mL and 183 µM | IC50 [2, 11]: 115 µg/mL and 196 µM
12 | COc1ccc(C(O)(c2ccc(OC)c(Cl)c2)c2ccc(OC)c(Cl)c2)cc1Cl [TRD10] | 73.5 ± 1.8 | 54.4 (≈ 120 µM) | – | 162 | 120 | 77.4 µg/mL and 170 µM | 62.9 to 77.4 | 68.7 µg/mL and 151 µM | 87.0 (≈ 192 µM) | 81.9 (≈ 180 µM) | 192 | 180 | 85.8 µg/mL and 189 µM | antiproliferative / cytotoxic activity in words [3]: moderate cytotoxic activity
